From ChEMBL document CHEMBL5257060, “Trust Your Gut: Strategies and Tactics for Intestinally Restricted Drugs” (ACS Med Chem Lett, 2023)
Each block holds one molecule with its values, some of them ahead of it.

What was measured:
[1] = Drug recovery in feces of rats at 30 mg/kg, po; assay type: ADME, organism-based; settings: rat, faeces, read-out: Drug recovery
[2] = Cmax in rat at 30 mg/kg, po; assay type: ADME, organism-based; set-up: dose 30 mg/kg, route po; settings: in vivo
[3] = target: T1, Sodium/hydrogen exchanger 3 (Homo sapiens, UniProt P48764); assay: Inhibition of human NHE3
T1 sequence (P48764 whole entry): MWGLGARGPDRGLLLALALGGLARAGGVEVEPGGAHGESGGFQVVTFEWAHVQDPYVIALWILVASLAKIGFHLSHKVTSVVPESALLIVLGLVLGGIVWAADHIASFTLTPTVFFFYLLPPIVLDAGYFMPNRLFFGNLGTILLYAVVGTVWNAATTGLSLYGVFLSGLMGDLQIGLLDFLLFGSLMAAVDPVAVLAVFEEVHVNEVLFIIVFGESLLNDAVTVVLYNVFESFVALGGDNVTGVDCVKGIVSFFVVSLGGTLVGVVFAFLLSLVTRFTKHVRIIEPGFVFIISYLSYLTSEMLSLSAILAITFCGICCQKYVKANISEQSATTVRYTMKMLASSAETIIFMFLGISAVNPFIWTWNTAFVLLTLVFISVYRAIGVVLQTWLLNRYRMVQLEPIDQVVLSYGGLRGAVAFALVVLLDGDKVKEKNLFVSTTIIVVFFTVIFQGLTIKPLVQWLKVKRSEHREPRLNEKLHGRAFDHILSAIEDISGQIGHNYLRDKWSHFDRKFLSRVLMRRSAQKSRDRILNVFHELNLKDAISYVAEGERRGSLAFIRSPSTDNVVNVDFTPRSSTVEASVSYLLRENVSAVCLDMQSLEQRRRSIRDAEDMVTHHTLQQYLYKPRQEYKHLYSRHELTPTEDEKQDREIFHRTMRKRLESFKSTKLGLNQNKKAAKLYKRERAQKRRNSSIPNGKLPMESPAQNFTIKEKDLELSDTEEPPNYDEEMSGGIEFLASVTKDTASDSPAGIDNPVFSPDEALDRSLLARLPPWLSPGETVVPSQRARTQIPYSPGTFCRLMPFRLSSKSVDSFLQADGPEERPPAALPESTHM

[4] = target: T2, G-protein coupled bile acid receptor 1 (Mus musculus, UniProt Q80SS6); assay: Inhibition of mouse TGR5
T2 sequence (Q80SS6 whole entry): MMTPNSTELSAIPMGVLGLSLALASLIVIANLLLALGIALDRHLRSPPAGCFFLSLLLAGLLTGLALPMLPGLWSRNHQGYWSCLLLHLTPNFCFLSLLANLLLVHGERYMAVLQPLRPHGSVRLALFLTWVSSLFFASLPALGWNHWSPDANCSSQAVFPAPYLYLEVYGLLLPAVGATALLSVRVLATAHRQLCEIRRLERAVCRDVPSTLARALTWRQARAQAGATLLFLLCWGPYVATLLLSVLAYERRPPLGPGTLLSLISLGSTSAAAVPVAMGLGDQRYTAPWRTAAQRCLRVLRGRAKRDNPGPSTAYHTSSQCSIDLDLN

[5] = Apparent permeability across apical to basolateral side in human Caco-2 cells; assay type: ADME, cell-based
[6] = Drug recovery in feces of mouse at 5 mg/kg, po; assay type: ADME, organism-based; settings: faeces, read-out: Drug recovery
[7] = AUC in mouse at 5 mg/kg, po; assay type: ADME, organism-based; set-up: dose 5 mg/kg, route po; settings: in vivo
[8] = Drug concentration in mouse plasma at 30 mg/kg, po measured for 2 hr; assay type: ADME, organism-based
[9] = Drug concentration in mouse intestine at 30 mg/kg, po measured for 2 hr; assay type: ADME, organism-based; settings: read-out: Ct
[10] = Cmax in ICR mouse plasma at 150 mg/kg, po measured at 1 hr post dose; assay type: ADME, organism-based; set-up: time 1 hrs, dose 150 mg/kg, route po
[11] = Apparent permeability across apical to basolateral side in human Caco-2 cells by PAMPA assay; assay type: ADME, cell-based
Dipeptidyl peptidase 4 = Dipeptidyl peptidase 4 (Mus musculus, UniProt P28843); assay: Inhibition of mouse DPP4
[12] = Cmax in mouse colon at 10 mg/kg, po; assay type: ADME, organism-based; set-up: dose 10 mg/kg, route po
[13] = Efflux ratio of apparent permeability in human Caco-2 cells; assay type: ADME, cell-based
[14] = Cmax in mouse plasma at 10 mg/kg, po; assay type: ADME, organism-based; set-up: dose 10 mg/kg, route po
[15] = Apparent permeability in human Caco-2 cells; assay type: ADME, cell-based
[16] = Cmax in rat plasma at 10 mg/kg, po; assay type: ADME, organism-based; set-up: dose 10 mg/kg, route po
[17] = Cmax in mouse colon content at 10 mg/kg, po; assay type: ADME, organism-based; set-up: dose 10 mg/kg, route po
[18] = Drug recovery in feces of rats at 20 mg, po; assay type: ADME; settings: rat, faeces, read-out: Drug recovery

Dipeptidyl peptidase 4, sequence (P28843 whole entry): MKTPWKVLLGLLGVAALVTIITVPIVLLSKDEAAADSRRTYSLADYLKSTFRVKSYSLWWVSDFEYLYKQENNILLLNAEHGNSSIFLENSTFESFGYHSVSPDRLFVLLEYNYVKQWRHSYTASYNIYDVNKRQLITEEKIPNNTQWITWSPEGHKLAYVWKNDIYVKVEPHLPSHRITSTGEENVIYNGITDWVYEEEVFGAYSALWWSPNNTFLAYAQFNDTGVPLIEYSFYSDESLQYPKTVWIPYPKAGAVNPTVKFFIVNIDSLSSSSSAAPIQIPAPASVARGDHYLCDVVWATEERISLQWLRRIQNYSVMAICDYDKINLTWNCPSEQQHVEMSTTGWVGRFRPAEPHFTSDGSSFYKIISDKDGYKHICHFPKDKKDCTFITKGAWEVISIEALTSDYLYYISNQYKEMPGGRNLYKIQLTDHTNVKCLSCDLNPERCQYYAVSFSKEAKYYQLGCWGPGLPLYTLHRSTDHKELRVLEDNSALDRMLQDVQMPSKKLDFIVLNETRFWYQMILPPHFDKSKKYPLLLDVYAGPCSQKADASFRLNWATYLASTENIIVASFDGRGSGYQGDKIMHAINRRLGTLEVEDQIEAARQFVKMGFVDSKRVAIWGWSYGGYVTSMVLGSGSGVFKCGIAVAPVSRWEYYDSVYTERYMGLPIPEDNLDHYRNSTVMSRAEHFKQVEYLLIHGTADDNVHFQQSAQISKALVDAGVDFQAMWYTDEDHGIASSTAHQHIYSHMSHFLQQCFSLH

Structure (SMILES): CN1Cc2c(Cl)cc(Cl)cc2[C@@H](c2cccc(S(=O)(=O)NCCOCCOCCNC(=O)NCCCCNC(=O)NCCOCCOCCNS(=O)(=O)c3cccc([C@@H]4CN(C)Cc5c(Cl)cc(Cl)cc54)c3)c2)C1
- dose excreted [1]: 92%
- Cmax [2]: < 0.5 ng/mL
- IC50 [3]: 0.0005 µM

Structure (SMILES): CO[C@@H]1C[C@@H]2C[C@H](O)CC[C@]2(C)[C@H]2CC[C@]3(C)[C@@H]([C@H](C)CCC(=O)N(C)C[C@H](O)[C@@H](O)[C@H](O)[C@H](O)CO)CC[C@H]3[C@H]12
- EC50 [4]: 0.0623 µM

Structure (SMILES): CO[C@@H]1CC[C@@]2(C)[C@H](CC(OS(=O)(=O)[O-])[C@@H]3[C@@H]2CC[C@]2(C)[C@@H]([C@H](C)CCc4nnn[nH]4)CC[C@@H]32)C1.[Na+] (some centres not stated)
- Papp A→B [5]: 0.4 ×10⁻⁶ cm/s
- dose excreted [6]: 89%
- AUC [7]: 4840 ng·h/mL

Structure (SMILES): Cc1cc(Nc2cc3ncccc3c(NC3C[C@H]4CC[C@@H](C3)N4CCC#N)n2)n[nH]1 (some centres not stated)
- Cmax [12]: 9.17 µM
- efflux ratio [13]: 32.5
- Cmax [14]: 0.003 µM
- Papp [15]: 1.17 ×10⁻⁶ cm/s

Structure (SMILES): Cc1cccc(Oc2cc(Oc3cccc(C)n3)cc(Oc3cccc(C)n3)c2)n1 [AMELENODOR]
- Cmax [16]: 57 ng/mL
- Cmax [12]: 150000 ng/g
- Cmax [17]: 1e+07 ng/g

Second part, the molecule after the results:

- concentration at 2 h [8]: 0.006 µM
- concentration at 2 h [9]: 30 µM
Structure (SMILES): Cc1cc(C)c(S(=O)(=O)N(CCc2cccc(Br)c2)Cc2ccc(-c3cccc(S(C)(=O)=O)c3)cc2)c(C)c1

- Cmax [10]: 101 ng/mL
- Papp A→B [11]: 0.03 ×10⁻⁶ cm/s
- EC50 [4]: 0.017 µM
- IC50 (Dipeptidyl peptidase 4): 70 µM
Structure (SMILES): CC#CCn1c(N2CCC[C@H](NC(=O)CCOCCOCCOCCOCCOCCOCCN(C)C(=O)CCc3cc(Cl)c(Oc4ccncc4C(=O)N4CCN(C5CC5)c5ccccc54)cc3Cl)C2)nc2c1c(=O)n(Cc1nc(C)c3ccccc3n1)c(=O)n2C

- Papp A→B [5]: 0.06 ×10⁻⁶ cm/s
Structure (SMILES): CN(CC[N+](C)(C)C)C(=O)CCc1cc(Cl)c(Oc2ccsc2C(=O)N2CCN(C3CC3)c3ccccc32)cc1Cl.O=C([O-])C(F)(F)F

- dose excreted [18]: 94%
Structure (SMILES): CCCCC1(CCCC)CS(=O)(=O)c2ccc(N(C)C)cc2[C@@H](c2ccc(OCc3ccc(C[N+]45CCN(CC4)CC5)cc3)cc2)[C@H]1O [MARALIXIBAT]
